Columns and labels:
Type in all cases: in vivo
Conditions in all cases: 250 g/ha, evaluated after 13 days
[1] = system: Amaranthus palmeri (AMAPA); test: Post-emergence herbicide glasshouse test
Method in brief: (§1)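 Damage rated 13 days after spraying on a five-point scale (1=0–20% … 5=81–100%). Compound applied at 250 g/ha by default, as aqueous spray from acetone/water 50:50 plus 0.5% Tween 20, to pots one day post-sowing (pre) or after 8 days of growth (post). Plants kept at 24/16 °C, 14 h light, 65% humidity, watered twice daily.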

[2] = system: Amaranthus retoflexus (AMARE); test: Post-emergence herbicide glasshouse test
Method in brief: as §1

[3] = system: Echinochloa crus-galli (ECHCG); test: Post-emergence herbicide glasshouse test
Method in brief: as §1

[4] = system: Ipomoea hederacea (IPOHE); test: Post-emergence herbicide glasshouse test
Method in brief: as §1

[5] = system: Amaranthus palmeri (AMAPA); test: Pre-emergence herbicide glasshouse test
Method in brief: as §1

[6] = system: Amaranthus retoflexus (AMARE); test: Pre-emergence herbicide glasshouse test
Method in brief: as §1

[7] = system: Echinochloa crus-galli (ECHCG); test: Pre-emergence herbicide glasshouse test
Method in brief: as §1

[8] = system: Ipomoea hederacea (IPOHE); test: Pre-emergence herbicide glasshouse test
Method in brief: as §1

SMILES	percentage damage caused to the plant, AMAPA (five-point scale) [1]	percentage damage caused to the plant, AMARE (five-point scale) [2]	percentage damage caused to the plant, ECHCG (five-point scale) [3]	percentage damage caused to the plant, IPOHE (five-point scale) [4]	percentage damage caused to the plant, AMAPA (five-point scale) [5]	percentage damage caused to the plant, AMARE (five-point scale) [6]	percentage damage caused to the plant, ECHCG (five-point scale) [7]	percentage damage caused to the plant, IPOHE (five-point scale) [8]
FC(F)(F)c1cn(Cc2noc(C3CC3)n2)c(-c2ccc(Cl)nc2)n1 [Compound 1.125]	4 (4=61-80%)	5 (5=81-100%)	4 (4=61-80%)	5 (5=81-100%)	5 (5=81-100%)	5 (5=81-100%)	5 (5=81-100%)	5 (5=81-100%)
CC(C)c1nc(Cn2cc(C(F)(F)F)nc2-c2ccc(Cl)nc2)no1 [Compound 1.126]	1 (1=0-20%)	1 (1=0-20%)	1 (1=0-20%)	1 (1=0-20%)	1 (1=0-20%)	1 (1=0-20%)	1 (1=0-20%)	1 (1=0-20%)
CC(C)c1nnc(Cn2cc(C(F)(F)F)nc2-c2ccc(Cl)nc2)o1 [Compound 1.131]	1 (1=0-20%)	1 (1=0-20%)	1 (1=0-20%)	1 (1=0-20%)	1 (1=0-20%)	5 (5=81-100%)	1 (1=0-20%)	1 (1=0-20%)
FC(F)(F)c1cn(Cc2cc(C3CC3)no2)c(-c2ccc(Cl)nc2)n1 [Compound 1.134]	5 (5=81-100%)	5 (5=81-100%)	2 (2=21-40%)	4 (4=61-80%)	5 (5=81-100%)	5 (5=81-100%)	3 (3=41-60%)	4 (4=61-80%)
CC(C)(C)c1csc(Cn2cc(C(F)(F)F)nc2-c2ccc(Cl)nc2)n1 [Compound 1.137]	1 (1=0-20%)	1 (1=0-20%)	1 (1=0-20%)	1 (1=0-20%)	1 (1=0-20%)	1 (1=0-20%)	1 (1=0-20%)	1 (1=0-20%)
FC(F)(F)c1cn(Cc2nc(C3CC3)no2)c(-c2ccc(Cl)nc2)n1 [Compound 1.138]	1 (1=0-20%)	1 (1=0-20%)	1 (1=0-20%)	2 (2=21-40%)	3 (3=41-60%)	3 (3=41-60%)	1 (1=0-20%)	2 (2=21-40%)
CC(C)c1noc(Cn2cc(C(F)(F)F)nc2-c2ccc(Cl)nc2)n1 [Compound 1.139]	1 (1=0-20%)	1 (1=0-20%)	1 (1=0-20%)	1 (1=0-20%)	1 (1=0-20%)	1 (1=0-20%)	1 (1=0-20%)	1 (1=0-20%)
CCCn1nnnc1Cn1cc(C(F)(F)F)nc1-c1ccc(Cl)nc1 [Compound 1.140]	1 (1=0-20%)	1 (1=0-20%)	1 (1=0-20%)	1 (1=0-20%)	1 (1=0-20%)	1 (1=0-20%)	1 (1=0-20%)	1 (1=0-20%)
Cc1noc(C)c1Cn1cc(C(F)(F)F)nc1-c1ccc(Cl)nc1 [Compound 1.141]	1 (1=0-20%)	1 (1=0-20%)	1 (1=0-20%)	1 (1=0-20%)	1 (1=0-20%)	1 (1=0-20%)	1 (1=0-20%)	1 (1=0-20%)
CN(C)S(=O)(=O)c1cc(Cn2cc(C(F)(F)F)nc2-c2ccc(Cl)nc2)co1 [Compound 1.144]	1 (1=0-20%)	1 (1=0-20%)	1 (1=0-20%)	1 (1=0-20%)	1 (1=0-20%)	1 (1=0-20%)	1 (1=0-20%)	1 (1=0-20%)
Cc1cc(Cn2cc(C(F)(F)F)nc2-c2ccc(Cl)nc2)n(C)n1 [Compound 1.147]	2 (2=21-40%)	3 (3=41-60%)	1 (1=0-20%)	3 (3=41-60%)	2 (2=21-40%)	2 (2=21-40%)	1 (1=0-20%)	4 (4=61-80%)
FC(F)(F)c1cn(Cc2sc(Cl)nc2Cl)c(-c2ccc(Cl)nc2)n1 [Compound 1.148]	1 (1=0-20%)	1 (1=0-20%)	1 (1=0-20%)	1 (1=0-20%)	1 (1=0-20%)	1 (1=0-20%)	1 (1=0-20%)	1 (1=0-20%)
FC(F)(F)c1cn(Cc2cnc(Cl)s2)c(-c2ccc(Cl)nc2)n1 [Compound 1.150]	1 (1=0-20%)	1 (1=0-20%)	1 (1=0-20%)	1 (1=0-20%)	2 (2=21-40%)	2 (2=21-40%)	1 (1=0-20%)	1 (1=0-20%)
Cc1noc(Cn2cc(C(F)(F)F)nc2-c2cnc(F)c(Cl)c2)n1 [Compound 1.151]	5 (5=81-100%)	5 (5=81-100%)	3 (3=41-60%)	4 (4=61-80%)	5 (5=81-100%)	5 (5=81-100%)	3 (3=41-60%)	5 (5=81-100%)

From patent US20260125360A1, “HERBICIDAL IMIDAZOLE COMPOUNDS” (SYNGENTA CROP PROTECTION AG, priority 2022, published 2026)
